The text below walks through data of US20190099502A1, “TARGETING THE NEURONAL CALCIUM SENSOR 1 FOR TREATING WOLFRAM SYNDROME” (INSERM (INSTITUT NATIONAL DE LA SANTÉ ET DE LA RECHERCHE …, priority 2016, published 2019).

The subject of the assay is NCS1 expression. Nature of the assay: Time course immunoblotting of NCS1 in fibroblasts treated with MG-132. It counts as cell-based, human. The note with it: 10 μM MG-132, 16 h. The procedure:
Immunoprecipitates were analysed by western blotting with antibodies against Flag and myc. Input represents cell lysate. n=3 independent experiments. (B) Transcript levels of WFS1 were quantified by RT-qPCR in control (C1, C2) and patient fibroblasts (P1, P2). The mRNA levels were normalized with reference gene L27. Error bars: SEM n=6 independent experiments. (C) Immunoblot of lysates from controls (C1, C2) and patient fibroblasts (P1, P2) with NCS1 antibody. GAPDH was used as a loading control. The immunoblot bands were quantified by densitometry, and the NCS1/GAPDH ratios were calculated (n=5 independent experiments). (D) Western analysis and quantification of control fibroblasts transfected with scramble siRNA (siScr) or WFS1 siRNA (siWFS1). WFS1 and NCS1 protein expression were analysed 72 h post-siRNA transfection. Data are represented as mean ±SEM from n=7 independent experiments *p<0.05, using Mann Whitney test. […]
GAPDH was used as a loading control. Quantification of NCS1 expression level after 16 h of MG-132 treatment normalized to GAPDH is shown. […]
To investigate NCS1 functions in WS, we took advantage of WFS1-null patient fibroblasts. […] We first examined the expression of WFS1 using quantitative PCR and western blot. […] Then, we analysed NCS1 mRNA and protein expression in patient cells. […]
(In general: A western blot detects proteins with antibodies after separation by electrophoresis.)

Where a SMILES comes first, the peptide text is derived from it. The star is where a group is joined. Cbz = O=C(OCc1ccccc1)*

Consider `CC(C)C[C@@H](C=O)NC(=O)[C@H](CC(C)C)NC(=O)[C@H](CC(C)C)NC(=O)OCc1ccccc1` [MG-132] (Cbz-Leu-Leu-Leu-aldehyde), for which the “effect on NCS1 expression” value (control cells) was “ineffective”. The “increase in NCS1 expression” value (patient fibroblasts, normalized to GAPDH) was “two-fold”.
